According to PMC8160438, “A Novel Heptapeptide, GPPGPAG Transfers to the Brain, and Ameliorates Memory Dysfunction and Dendritic Atrophy in Alzheimer’s Disease Model Mice” (Frontiers in Pharmacology, 2021):
No end group written: not given here.

Test: Plasma level after oral administration, LC-MS
Format: in vivo
Conditions: 500 mg/animal, ddY mice, female, 8 weeks, 500 mg/mouse p.o. single dose, sampled at 10, 60, 180 min, n = 3, read-out: time of peak in the plasma (converted)
Procedure: Bioavailability and brain penetration of GPPGPAG was performed as previously described ([Yang et al., 2017]). GPPGPAG (500 mg) was dissolved in 750 μL of physiological saline. GPPGPAG or vehicle solution (physiological saline) was orally administered using an oral gavage to female ddY mice (8 weeks-old). The mice were euthanized at 10, 60, and 180 min after administration. Blood was collected and centrifuged at 10,000 g and 4°C for 10 min to yield plasma. Plasma aliquots (200 μL) were extracted with methanol, dried, sonicated, and resolubilized in 50% methanol (100 μL). The cerebral cortex was also collected after complete saline perfusion for removing blood. […]
FIGURE 6 Brain penetration of GPPGPAG after oral administration in mice GPPGPAG (500 mg/mouse, p. o.) or vehicle solution (physiological saline) was administered to mice (ddY, females, 8 weeks old, n = 3) as a single dose. […] (A) Total ion chromatogram (upper) and extracted ion current chromatogram (lower) of standard GPPGPAG (m/z = 552.2753) at 10 μg/ml for quantification of (B) and (C) data. […] In total ion chromatogram (upper) and extracted ion current chromatogram (lower) of m/z = 552.2753, no peaks were detected. […] In total ion chromatogram and extracted ion current chromatogram of m/z = 552.2753, peaks matching the retention time of GPPGPAG were detected. […]

For GPPGPAG [GPPGPAG], which Tmax is on record?
The Tmax was 10 min.
